The target of test [1] is T1, CaMKIIδ (Ca2+/calmodulin-dependent protein kinase II delta) (Homo sapiens, UniProt Q13557). In words: continuous coupled spectrophotometric kinase assay with autocamtide-3. Type of test: biochemical.
Test [2] concerns the target T1, CaMKIIδ (Ca2+/calmodulin-dependent protein kinase II delta). The description is as above. Type of test: biochemical. The source holds these as a separate data set.

Two molecules from paper PMC5820112 (Journal of molecular and cellular cardiology, 2017) can be followed below.

T1 sequence (Q13557 2-499): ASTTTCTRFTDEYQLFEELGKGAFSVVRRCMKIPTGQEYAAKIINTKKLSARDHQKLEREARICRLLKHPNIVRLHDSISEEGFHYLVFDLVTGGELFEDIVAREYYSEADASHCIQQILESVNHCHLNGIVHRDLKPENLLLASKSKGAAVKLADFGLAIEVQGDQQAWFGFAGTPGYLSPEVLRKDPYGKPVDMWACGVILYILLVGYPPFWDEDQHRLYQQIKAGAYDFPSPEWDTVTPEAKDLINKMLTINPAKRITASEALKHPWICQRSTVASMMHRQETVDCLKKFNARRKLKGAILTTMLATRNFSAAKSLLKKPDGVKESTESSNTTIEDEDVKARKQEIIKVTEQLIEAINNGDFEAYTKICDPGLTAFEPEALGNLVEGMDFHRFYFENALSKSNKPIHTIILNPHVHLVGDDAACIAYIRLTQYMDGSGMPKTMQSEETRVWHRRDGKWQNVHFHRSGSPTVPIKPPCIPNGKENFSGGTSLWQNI

In test [1], `COc1ccc(S(=O)(=O)N(CCO)c2ccccc2CN(C)C/C=C/c2ccc(Cl)cc2)cc1` [KN-93] yielded an IC50 of 1400 nM.
Take AS105: the affinity in test [2] corresponds to a Ki of 3 nM.

By IC50 is commonly meant the concentration at which inhibition is half-maximal. One may read the Ki as a measure of affinity in units of concentration, obtained from inhibition or displacement.
